Here are results for 21 compounds from patent US12157746B2, “Tetrahydro-1H-pyrazino[2,1-a]isoindolylquinoline compounds for the treatment of autoimmune disease” (F. HOFFMANN-LA ROCHE AG, priority 2018, dated 2024).

Where only a bound is given, the exact number is not on record here.

This assay addresses T1, human TLR7 (Homo sapiens, UniProt Q9NYK1).
T1 sequence (Q9NYK1 27-1049): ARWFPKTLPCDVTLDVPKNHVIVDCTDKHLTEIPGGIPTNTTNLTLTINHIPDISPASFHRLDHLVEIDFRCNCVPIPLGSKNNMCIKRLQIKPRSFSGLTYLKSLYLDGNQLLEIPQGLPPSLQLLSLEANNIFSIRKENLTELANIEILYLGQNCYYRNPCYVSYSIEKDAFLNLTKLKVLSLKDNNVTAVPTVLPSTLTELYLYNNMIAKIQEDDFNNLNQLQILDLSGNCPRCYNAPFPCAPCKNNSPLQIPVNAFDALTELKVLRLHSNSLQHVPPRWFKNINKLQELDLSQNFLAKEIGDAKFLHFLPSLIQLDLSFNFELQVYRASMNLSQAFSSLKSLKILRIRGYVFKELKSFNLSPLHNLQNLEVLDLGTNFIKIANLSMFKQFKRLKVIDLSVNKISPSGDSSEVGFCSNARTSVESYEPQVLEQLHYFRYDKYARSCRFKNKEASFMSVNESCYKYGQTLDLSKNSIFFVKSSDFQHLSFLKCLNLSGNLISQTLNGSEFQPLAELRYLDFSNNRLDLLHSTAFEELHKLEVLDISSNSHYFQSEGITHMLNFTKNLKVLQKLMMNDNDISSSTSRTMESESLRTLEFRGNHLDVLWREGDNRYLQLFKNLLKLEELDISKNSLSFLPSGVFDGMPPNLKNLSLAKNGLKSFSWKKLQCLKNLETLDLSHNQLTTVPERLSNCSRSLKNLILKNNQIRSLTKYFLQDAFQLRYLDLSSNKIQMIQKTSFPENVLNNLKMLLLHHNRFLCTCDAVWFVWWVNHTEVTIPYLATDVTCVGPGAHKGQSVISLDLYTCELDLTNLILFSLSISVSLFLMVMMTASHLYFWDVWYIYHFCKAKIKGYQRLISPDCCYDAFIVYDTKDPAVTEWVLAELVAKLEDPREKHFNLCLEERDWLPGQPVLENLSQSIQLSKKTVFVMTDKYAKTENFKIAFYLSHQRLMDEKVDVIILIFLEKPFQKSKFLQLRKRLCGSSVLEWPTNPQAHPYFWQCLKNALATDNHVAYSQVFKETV
The assay can be described thus: HEK293-Blue-hTLR-7 cells assay. It counts as cell-based. Particulars: HEK293-Blue-hTLR7 cells, R848 stimulation, 20 hrs, SEAP reporter; read-out: HEK/hTLR7 IC50. An outline of the steps:
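HEK293-Blue-hTLR7 cells (NF-κB/AP-1-driven SEAP reporter) incubated with serially diluted compound (1% DMSO final) and R848 agonist for 20 h at 37 °C. Supernatant SEAP measured with QUANTI-Blue (2 h, 37 °C) by absorbance at 620-655 nm; antagonism seen as reduced reporter.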

Turning to `C[C@@H]1CN(c2ccc(C#N)c3ncccc23)C[C@@H]2c3ccc(N4CC5(CNC5)C4)cc3CN12` [Example 36, 5-[(4R,10bS)-8-(2,6-diazaspiro[3.3]heptan-2-yl)-4-methyl-3,4,6,10b-tetrahydro-1H-pyrazino[2,1-a]isoindol-2-yl]quinoline-8-carbonitrile], the IC50 turned out to be 3.3 nM. On to `C[C@@H]1CN(c2ccc(C#N)c3ncccc23)C[C@@H]2c3ccc(C4CNC4)cc3CN12` [Example 29, 5-[(4R,10bS)-8-(azetidin-3-yl)-4-methyl-3,4,6,10b-tetrahydro-1H-pyrazino[2,1-a]isoindol-2-yl]quinoline-8-carbonitrile], for which the IC50 is under 3.2 nM. Regarding `C[C@@H]1CN(c2ccc(C#N)c3ncccc23)C[C@@H]2c3ccc(N4CCN[C@H](CO)C4)cc3CN12` [Example 12, 5-[(4R,10bS)-8-[(3S)-3-(hydroxymethyl)piperazin-1-yl]-4-methyl-3,4,6,10b-tetrahydro-1H-pyrazino[2,1-a]isoindol-2-yl]quinoline-8-carbonitrile], the IC50 was under 3.2 nM. With `CO[C@@H]1CN(c2ccc3c(c2)CN2[C@H](C)CN(c4ccc(C#N)n5ncc(F)c45)C[C@H]32)C[C@H]1N` [Example 113, 4-[(4R,10bS)-8-[(3R,4R)-3-amino-4-methoxy-pyrrolidin-1-yl]-4-methyl-3,4,6,10b-tetrahydro-1H-pyrazino[2,1-a]isoindol-2-yl]-3-fluoro-pyrazolo[1,5-a]pyridine-7-carbonitrile] the figure was 6 nM; with `C[C@@H]1CN(c2ccc(C#N)c3ncccc23)C[C@@H]2c3ccc(N4CCOCC(N)C4)cc3CN12` (stereo partly drawn) [Example 54, 5-[(4R,10bS)-8-(6-amino-1,4-oxazepan-4-yl)-4-methyl-3,4,6,10b-tetrahydro-1H-pyrazino[2,1-a]isoindol-2-yl]quinoline-8-carbonitrile], 4 nM. Turning to `C[C@@H]1CN(c2ccc(C#N)c3ncccc23)C[C@@H]2c3ccc(N[C@H]4CNC[C@@H]4F)cc3CN12` [Example 31, 5-[(4R,10bS)-8-[[(3S,4S)-4-fluoropyrrolidin-3-yl]amino]-4-methyl-3,4,6,10b-tetrahydro-1H-pyrazino[2,1-a]isoindol-2-yl]quinoline-8-carbonitrile], the IC50 was found to be 4.1 nM.

Take `C[C@@H]1CN(c2ccc(C#N)n3nccc23)C[C@@H]2c3ccc(N4CCOC[C@H](N)C4)cc3CN12` [Example 101, 4-[(4R,10bS)-8-[(6R)-6-amino-1,4-oxazepan-4-yl]-4-methyl-3,4,6,10b-tetrahydro-1H-pyrazino[2,1-a]isoindol-2-yl]pyrazolo[1,5-a]pyridine-7-carbonitrile]: the IC50 came to 26.4 nM. On to `C[C@@H]1CN(c2ccc(C#N)c3ncccc23)C[C@@H]2c3ccc(N4CC5(CN(C)C5)C4)cc3CN12` [Example 38, 5-[(4R,10bS)-4-methyl-8-(6-methyl-2,6-diazaspiro[3.3]heptan-2-yl)-3,4,6,10b-tetrahydro-1H-pyrazino[2,1-a]isoindol-2-yl]quinoline-8-carbonitrile], for which the IC50 was determined as 1.7 nM. With `C[C@@H]1CN(c2ccc(C#N)n3nccc23)C[C@@H]2c3ccc(N4C[C@H](N)[C@@](C)(O)C4)cc3CN12` [Example 109, 4-[(4R,10bS)-8-[(3S,4S)-4-amino-3-hydroxy-3-methyl-pyrrolidin-1-yl]-4-methyl-3,4,6,10b-tetrahydro-1H-pyrazino[2,1-a]isoindol-2-yl]pyrazolo[1,5-a]pyridine-7-carbonitrile], the IC50 is 28.1 nM. In the case of `CO[C@H]1CCN(c2ccc3c(c2)CN2[C@H](C)CN(c4ccc(C#N)n5nccc45)C[C@H]32)C[C@H]1N` [Example 106, 4-[(4R,10bS)-8-[(3R,4S)-3-amino-4-methoxy-1-piperidyl]-4-methyl-3,4,6,10b-tetrahydro-1H-pyrazino[2,1-a]isoindol-2-yl]pyrazolo[1,5-a]pyridine-7-carbonitrile], the IC50 was 22.6 nM. With `C[C@@H]1CN(c2ccc(C#N)c3ncccc23)C[C@@H]2c3ccc(N4CCNC[C@@](C)(O)C4)cc3CN12` [Example 55B, 5-[(4R,10bS)-8-[(6R)-6-hydroxy-6-methyl-1,4-diazepan-1-yl]-4-methyl-3,4,6,10b-tetrahydro-1H-pyrazino[2,1-a]isoindol-2-yl]quinoline-8-carbonitrile], the IC50 was 16.1 nM. `C[C@@H]1CN(c2ccc(C#N)c3ncccc23)C[C@@H]2c3ccc(N4CCNC[C@](C)(O)C4)cc3CN12` [Example 55A, 5-[(4R,10bS)-8-[(6S)-6-hydroxy-6-methyl-1,4-diazepan-1-yl]-4-methyl-3,4,6,10b-tetrahydro-1H-pyrazino[2,1-a]isoindol-2-yl]quinoline-8-carbonitrile]: the IC50 turned out to be 7.7 nM. Then `CO[C@H]1CN(c2ccc3c(c2)CN2[C@H](C)CN(c4ccc(C#N)c5ncccc45)C[C@H]32)C[C@@H]1N` (relative stereo) [Example 16, 5-[(4R,10bS)-8-[trans-3-amino-4-methoxy-pyrrolidin-1-yl]-4-methyl-3,4,6,10b-tetrahydro-1H-pyrazino[2,1-a]isoindol-2-yl]quinoline-8-carbonitrile], with 6.9 nM; and `C[C@@H]1CN(c2ccc(C#N)c3ncccc23)C[C@@H]2c3ccc(N4CC5(CNCCO5)C4)cc3CN12` [Example 35, 5-[(4R,10bS)-4-methyl-8-(5-oxa-2,8-diazaspiro[3.5]nonan-2-yl)-3,4,6,10b-tetrahydro-1H-pyrazino[2,1-a]isoindol-2-yl]quinoline-8-carbonitrile], with under 3.2 nM. Then `C[C@@H]1CN(c2ccc(C#N)c3ncccc23)C[C@@H]2c3ccc(N4C[C@@H](N)[C@](C)(O)C4)cc3CN12` [Example 45, 5-[(4R,10bS)-4-methyl-8-[trans-(3R,4R)-4-amino-3-hydroxy-3-methyl-pyrrolidin-1-yl]-3,4,6,10b-tetrahydro-1H-pyrazino[2,1-a]isoindol-2-yl]quinoline-8-carbonitrile], with 4.5 nM; and `C[C@@H]1CN(c2ccc(C#N)c3ncccc23)C[C@@H]2c3ccc(N4CCC(C)(N)CC4)cc3CN12` [Example 51, 5-[(4R,10bS)-8-(4-amino-4-methyl-1-piperidyl)-4-methyl-3,4,6,10b-tetrahydro-1H-pyrazino[2,1-a]isoindol-2-yl]quinoline-8-carbonitrile], with 1.4 nM; and `C[C@@H]1CN(c2ccc(C#N)c3ncccc23)C[C@@H]2c3ccc(N4CC(C)(N)C4)cc3CN12` [Example 39, 5-[(4R,10bS)-8-(3-amino-3-methyl-azetidin-1-yl)-4-methyl-3,4,6,10b-tetrahydro-1H-pyrazino[2,1-a]isoindol-2-yl]quinoline-8-carbonitrile], with 3 nM. For the compound `C[C@@H]1CN(c2ccc(C#N)n3nccc23)C[C@@H]2c3ccc(N[C@H]4CNC[C@H]4F)cc3CN12` [Example 98, 4-[(4R,10bS)-8-[[(3S,4R)-4-fluoropyrrolidin-3-yl]amino]-4-methyl-3,4,6,10b-tetrahydro-1H-pyrazino[2,1-a]isoindol-2-yl]pyrazolo[1,5-a]pyridine-7-carbonitrile], the IC50 was determined as 23.2 nM.

With `C[C@@H]1CN(c2ccc(C#N)n3nccc23)C[C@@H]2c3ccc(N4CC[C@@](C)(N)C4)cc3CN12` [Example 103, 4-[(4R,10bS)-8-[(3R)-3-amino-3-methyl-pyrrolidin-1-yl]-4-methyl-3,4,6,10b-tetrahydro-1H-pyrazino[2,1-a]isoindol-2-yl]pyrazolo[1,5-a]pyridine-7-carbonitrile], the IC50 is 25.8 nM. With `C[C@@H]1CN(c2ccc(C#N)c3ncccc23)C[C@@H]2c3ccc(N4CCNC[C@H]4CO)cc3CN12` [Example 11, 5-[(4R,10S)-8-[(2S)-2-(hydroxymethyl)piperazin-1-yl]-4-methyl-3,4,6,10b-tetrahydro-1H-pyrazino[2,1-a]isoindol-2-yl]quinoline-8-carbonitrile], the IC50 came to 3.4 nM. Take `C[C@@H]1CN(c2ccc(C#N)n3nccc23)C[C@@H]2c3ccc(N4CC[C@@H](N)C4)cc3CN12` [Example 96, 4-[(4R,10bS)-8-[(3R)-3-aminopyrrolidin-1-yl]-4-methyl-3,4,6,10b-tetrahydro-1H-pyrazino[2,1-a]isoindol-2-yl]pyrazolo[1,5-a]pyridine-7-carbonitrile]: the IC50 is 32.6 nM.
